Our source for the relative viability values is the supplement of paper PMC10307832.

Common to all, as to experiment: relative viability (nuclei count vs DMSO), 5 days (fraction); higher = more cells survive
Compound in the test “Bleomycin + Pemetrexed”: CC1=C(N=C(N=C1N)[C@H](CC(=O)N)NC[C@@H](C(=O)N)N)C(=O)N[C@@H]([C@H](C2=CN=CN2)OC3C(C(C(C(O3)CO)O)O)OC4C(C(C(C(O4)CO)O)OC(=O)N)O)C(=O)N[C@H](C)[C@H]([C@H](C)C(=O)N[C@@H]([C@@H](C)O)C(=O)NCCC5=NC(=CS5)C6=NC(=CS6)C(=O)NCCC[S+](C)C)O [Bleomycin] + Nc1nc2[nH]cc(CCc3ccc(C(=O)N[C@@H](CCC(=O)O)C(=O)O)cc3)c2c(=O)[nH]1 [Pemetrexed] (partner 0.2 µM)
The note with it: main component drawn. The gist of the method:
(§1)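 Dosing by pin tool came one day after lung cancer cell lines were seeded in 1536-well plates, using either one drug or a fixed anchor-drug dose plus five library-drug doses (not always all listed) in √10 steps. After 5 days, nuclei were counted on 4× images. Relative viability is treated-well nuclei count divided by vehicle-well nuclei count, and values are medians of duplicate plates.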

Compound in the test “Bleomycin + Luminespib”: CC1=C(N=C(N=C1N)[C@H](CC(=O)N)NC[C@@H](C(=O)N)N)C(=O)N[C@@H]([C@H](C2=CN=CN2)OC3C(C(C(C(O3)CO)O)O)OC4C(C(C(C(O4)CO)O)OC(=O)N)O)C(=O)N[C@H](C)[C@H]([C@H](C)C(=O)N[C@@H]([C@@H](C)O)C(=O)NCCC5=NC(=CS5)C6=NC(=CS6)C(=O)NCCC[S+](C)C)O [Bleomycin] + CCNC(=O)c1noc(-c2cc(C(C)C)c(O)cc2O)c1-c1ccc(CN2CCOCC2)cc1 [Luminespib] (partner 0.01 µM)
The settings on record: main component drawn. The gist of the method: as §1

Compound in the test “Etoposide + OSI-027”: COc1cc([C@@H]2c3cc4c(cc3[C@@H](O[C@@H]3O[C@@H]5CO[C@@H](C)O[C@H]5[C@H](O)[C@H]3O)[C@H]3COC(=O)[C@H]23)OCO4)cc(OC)c1O [Etoposide] + COc1cccc2cc(-c3nc([C@H]4CC[C@H](C(=O)O)CC4)n4ncnc(N)c34)[nH]c12 [OSI-027] (partner 0.5 µM)
The gist of the method:
as §1

Compound in the test “Bleomycin + Crizotinib”: CC1=C(N=C(N=C1N)[C@H](CC(=O)N)NC[C@@H](C(=O)N)N)C(=O)N[C@@H]([C@H](C2=CN=CN2)OC3C(C(C(C(O3)CO)O)O)OC4C(C(C(C(O4)CO)O)OC(=O)N)O)C(=O)N[C@H](C)[C@H]([C@H](C)C(=O)N[C@@H]([C@@H](C)O)C(=O)NCCC5=NC(=CS5)C6=NC(=CS6)C(=O)NCCC[S+](C)C)O [Bleomycin] + C[C@@H](Oc1cc(-c2cnn(C3CCNCC3)c2)cnc1N)c1c(Cl)ccc(F)c1Cl [Crizotinib] (partner 1 µM)
The note with it: main component drawn. In a few lines:
as §1

For COR-L 105, the relative viability in the test with Bleomycin + Pemetrexed (first compound 0.01 µM) was 0.949; with Bleomycin + Pemetrexed (first compound 0.03162 µM) it was 1.06; with Bleomycin + Pemetrexed (first compound 0.1 µM), 0.971; with Bleomycin + Pemetrexed (first compound 0.3162 µM), 0.468; with Bleomycin + Pemetrexed (first compound 1 µM) it was 0.573; with Bleomycin + Luminespib (first compound 0.01 µM) it was 0.665. The relative viability with Bleomycin + Luminespib (first compound 0.03162 µM) came out at 0.743; in the test with Bleomycin + Luminespib (first compound 0.1 µM) it was 0.562; with Bleomycin + Luminespib (first compound 0.3162 µM) it was 0.555; with Bleomycin + Luminespib (first compound 1 µM), 0.386; with Etoposide + OSI-027 (first compound 0.01 µM), 0.756; with Etoposide + OSI-027 (first compound 0.03162 µM) it was 0.851. Moreover, the relative viability came out at 0.432 with Etoposide + OSI-027 (first compound 0.1 µM); 0.669 with Etoposide + OSI-027 (first compound 0.3162 µM); 0.556 with Etoposide + OSI-027 (first compound 1 µM); 0.587 with Bleomycin + Crizotinib (first compound 0.01 µM); 0.875 with Bleomycin + Crizotinib (first compound 0.03162 µM); 0.52 in the test with Bleomycin + Crizotinib (first compound 0.1 µM). In addition, the relative viability in the test with Bleomycin + Crizotinib (first compound 0.3162 µM) came out at 0.368; in the test with Bleomycin + Crizotinib (first compound 1 µM), 0.364.
In the case of NCI-H3122, the relative viability in the test with Bleomycin + Pemetrexed (first compound 0.01 µM) amounted to 0.214; with Bleomycin + Pemetrexed (first compound 0.03162 µM), 0.205; with Bleomycin + Pemetrexed (first compound 0.1 µM), 0.201; with Bleomycin + Pemetrexed (first compound 0.3162 µM) it was 0.165; with Bleomycin + Pemetrexed (first compound 1 µM), 0.166; with Bleomycin + Luminespib (first compound 0.01 µM), 0.103. Further, the relative viability with Bleomycin + Luminespib (first compound 0.03162 µM) came out at 0.145; in the test with Bleomycin + Luminespib (first compound 0.1 µM) it was 0.101; with Bleomycin + Luminespib (first compound 0.3162 µM), 0.111; with Bleomycin + Luminespib (first compound 1 µM) it was 0.0599; in the test with Etoposide + OSI-027 (first compound 0.01 µM), 0.799; with Etoposide + OSI-027 (first compound 0.03162 µM), 0.985. Also, the relative viability with Etoposide + OSI-027 (first compound 0.1 µM) was determined as 0.404; in the test with Etoposide + OSI-027 (first compound 0.3162 µM), 0.722; in the test with Etoposide + OSI-027 (first compound 1 µM), 0.349; in the test with Bleomycin + Crizotinib (first compound 0.01 µM), 0.253; with Bleomycin + Crizotinib (first compound 0.03162 µM), 0.271; in the test with Bleomycin + Crizotinib (first compound 0.1 µM) it was 0.305. In addition, the relative viability in the test with Bleomycin + Crizotinib (first compound 0.3162 µM) turned out to be 0.214; in the test with Bleomycin + Crizotinib (first compound 1 µM), 0.253.
With NCI-H1915, the relative viability in the test with Bleomycin + Pemetrexed (first compound 0.01 µM) worked out at 0.428; with Bleomycin + Pemetrexed (first compound 0.03162 µM), 0.394; in the test with Bleomycin + Pemetrexed (first compound 0.1 µM) it was 0.31; with Bleomycin + Pemetrexed (first compound 0.3162 µM), 0.211; with Bleomycin + Pemetrexed (first compound 1 µM) it was 0.146; with Bleomycin + Luminespib (first compound 0.01 µM), 0.533. Moreover, the relative viability came out at 0.568 with Bleomycin + Luminespib (first compound 0.03162 µM); 0.398 with Bleomycin + Luminespib (first compound 0.1 µM); 0.235 with Bleomycin + Luminespib (first compound 0.3162 µM); 0.145 with Bleomycin + Luminespib (first compound 1 µM); 0.598 in the test with Etoposide + OSI-027 (first compound 0.01 µM); 0.637 in the test with Etoposide + OSI-027 (first compound 0.03162 µM). The relative viability is 0.492 in the test with Etoposide + OSI-027 (first compound 0.1 µM); 0.572 with Etoposide + OSI-027 (first compound 0.3162 µM); 0.504 with Etoposide + OSI-027 (first compound 1 µM); 0.661 with Bleomycin + Crizotinib (first compound 0.01 µM); 0.665 with Bleomycin + Crizotinib (first compound 0.03162 µM); 0.45 in the test with Bleomycin + Crizotinib (first compound 0.1 µM). Further, the results for the relative viability in the test with Bleomycin + Crizotinib (first compound 0.3162 µM) and with Bleomycin + Crizotinib (first compound 1 µM) were 0.337 and 0.183, respectively.
Take CAL-12T: the relative viability with Bleomycin + Pemetrexed (first compound 0.01 µM) stood at 0.729; with Bleomycin + Pemetrexed (first compound 0.03162 µM), 0.482; with Bleomycin + Pemetrexed (first compound 0.1 µM), 0.31; in the test with Bleomycin + Pemetrexed (first compound 0.3162 µM), 0.186; with Bleomycin + Pemetrexed (first compound 1 µM), 0.156; with Bleomycin + Luminespib (first compound 0.01 µM), 0.493. For the same cell line, the relative viability with Bleomycin + Luminespib (first compound 0.03162 µM) is 0.555; with Bleomycin + Luminespib (first compound 0.1 µM), 0.233; with Bleomycin + Luminespib (first compound 0.3162 µM), 0.173; with Bleomycin + Luminespib (first compound 1 µM) it was 0.143; with Etoposide + OSI-027 (first compound 0.01 µM), 0.527; in the test with Etoposide + OSI-027 (first compound 0.03162 µM) it was 0.603. Also, the relative viability with Etoposide + OSI-027 (first compound 0.1 µM) came out at 0.339; with Etoposide + OSI-027 (first compound 0.3162 µM), 0.555; in the test with Etoposide + OSI-027 (first compound 1 µM), 0.199; with Bleomycin + Crizotinib (first compound 0.01 µM), 0.356; with Bleomycin + Crizotinib (first compound 0.03162 µM), 0.405; in the test with Bleomycin + Crizotinib (first compound 0.1 µM) it was 0.25. Also, the relative viability came out at 0.15 in the test with Bleomycin + Crizotinib (first compound 0.3162 µM) and 0.192 with Bleomycin + Crizotinib (first compound 1 µM).
NCI-H2087: the relative viability stood at 0.645 in the test with Bleomycin + Pemetrexed (first compound 0.01 µM); 0.619 with Bleomycin + Pemetrexed (first compound 0.03162 µM); 0.622 with Bleomycin + Pemetrexed (first compound 0.1 µM); 0.241 with Bleomycin + Pemetrexed (first compound 0.3162 µM); 0.186 with Bleomycin + Pemetrexed (first compound 1 µM); 0.162 in the test with Bleomycin + Luminespib (first compound 0.03162 µM). The relative viability with Bleomycin + Luminespib (first compound 0.1 µM) was 0.188; in the test with Bleomycin + Luminespib (first compound 0.3162 µM) it was 0.124; with Bleomycin + Luminespib (first compound 1 µM), 0.142; with Etoposide + OSI-027 (first compound 0.01 µM) it was 0.514; with Etoposide + OSI-027 (first compound 0.03162 µM), 0.59; with Etoposide + OSI-027 (first compound 0.1 µM), 0.364. In addition, the relative viability with Etoposide + OSI-027 (first compound 0.3162 µM) amounted to 0.386; with Etoposide + OSI-027 (first compound 1 µM) it was 0.173; with Bleomycin + Crizotinib (first compound 0.01 µM), 0.617; with Bleomycin + Crizotinib (first compound 0.03162 µM) it was 0.771; in the test with Bleomycin + Crizotinib (first compound 0.1 µM), 0.735; with Bleomycin + Crizotinib (first compound 0.3162 µM) it was 0.303. In the test with Bleomycin + Crizotinib (first compound 1 µM), the relative viability was 0.274.
As for LXF-289, the relative viability with Bleomycin + Pemetrexed (first compound 0.01 µM) was found to be 0.852; with Bleomycin + Pemetrexed (first compound 0.03162 µM), 0.901; in the test with Bleomycin + Pemetrexed (first compound 0.1 µM), 0.845; in the test with Bleomycin + Pemetrexed (first compound 0.3162 µM) it was 0.588; in the test with Bleomycin + Pemetrexed (first compound 1 µM), 0.218; in the test with Bleomycin + Luminespib (first compound 0.01 µM), 0.568. In addition, the relative viability with Bleomycin + Luminespib (first compound 0.03162 µM) was 0.472; in the test with Bleomycin + Luminespib (first compound 0.1 µM), 0.49; in the test with Bleomycin + Luminespib (first compound 0.3162 µM), 0.133; in the test with Bleomycin + Luminespib (first compound 1 µM), 0.093; with Etoposide + OSI-027 (first compound 0.01 µM), 0.783; in the test with Etoposide + OSI-027 (first compound 0.03162 µM) it was 0.784. In addition, the relative viability with Etoposide + OSI-027 (first compound 0.1 µM) turned out to be 0.67; in the test with Etoposide + OSI-027 (first compound 0.3162 µM), 0.71; in the test with Etoposide + OSI-027 (first compound 1 µM) it was 0.431; in the test with Bleomycin + Crizotinib (first compound 0.01 µM) it was 0.725; with Bleomycin + Crizotinib (first compound 0.03162 µM), 0.678; with Bleomycin + Crizotinib (first compound 0.1 µM), 0.679. The relative viability with Bleomycin + Crizotinib (first compound 0.3162 µM) is 0.239; with Bleomycin + Crizotinib (first compound 1 µM), 0.149.
Regarding NCI-H520, the relative viability in the test with Bleomycin + Pemetrexed (first compound 0.01 µM) is 0.731; in the test with Bleomycin + Pemetrexed (first compound 0.03162 µM) it was 0.757; with Bleomycin + Pemetrexed (first compound 0.1 µM), 0.653; with Bleomycin + Pemetrexed (first compound 0.3162 µM) it was 0.443; with Bleomycin + Pemetrexed (first compound 1 µM) it was 0.446; with Bleomycin + Luminespib (first compound 0.01 µM), 0.227. Further, the relative viability with Bleomycin + Luminespib (first compound 0.03162 µM) is 0.196; with Bleomycin + Luminespib (first compound 0.1 µM), 0.218; with Bleomycin + Luminespib (first compound 0.3162 µM), 0.24; in the test with Bleomycin + Luminespib (first compound 1 µM), 0.213; in the test with Etoposide + OSI-027 (first compound 0.01 µM), 0.253; with Etoposide + OSI-027 (first compound 0.03162 µM), 0.209. Further, the relative viability with Etoposide + OSI-027 (first compound 0.1 µM) is 0.204; in the test with Etoposide + OSI-027 (first compound 0.3162 µM), 0.292; with Etoposide + OSI-027 (first compound 1 µM) it was 0.286; with Bleomycin + Crizotinib (first compound 0.01 µM), 0.531; in the test with Bleomycin + Crizotinib (first compound 0.03162 µM) it was 0.898; in the test with Bleomycin + Crizotinib (first compound 0.1 µM), 0.735. Besides, the relative viability was determined as 0.505 in the test with Bleomycin + Crizotinib (first compound 0.3162 µM) and 0.4 with Bleomycin + Crizotinib (first compound 1 µM).
